# Laboratory results reported in US20200375944A1, “LIPOIC ACID CHOLINE ESTER COMPOSITIONS AND METHODS TO GENERATE BIOCOMPATIBLE OPHTHALMIC FORMULATIONS” (ENCORE VISION, INC., priority 2015, published 2020).
# Tests used:
# human donor lenses = details: ex-vivo; cited from earlier work
# mouse lenses = details: ex-vivo; cited from earlier work
# [1] = Solubility profile of LACE; assay type: physicochemical
# Solution pH of LACE = assay type: physicochemical
# Log P of LACE = assay type: physicochemical
# Hygroscopicity of LACE = assay type: physicochemical
# [2] = Osmolality of EV06 compositions adjusted with glycerol; assay type: physicochemical
# Method: The requisite osmolality range for drug-containing formulations and placebo is 280-320 mOsm/kg. Preferably, all LACE formulations need to be within 290-310 mOsm/Kg.
# A series of placebos was prepared. All placebos, and the LACE-containing solutions that were subsequently prepared, contained the following, with varying amounts of Glycerol: • 0.5% (5 mg/g) Alanine • 0.005% (0.05 mg/g) Benzalkonium Chloride • Small amounts of 1 N Sodium Hydroxide, 1 N Hydrochloric Acid, to adjust pH to 4.5 • Water for Injection (added for final weight)
# Target for Total Osmolality was 300 mOsm/kg.
# Accordingly, a full series of solutions was prepared with slightly altered target osmolalities for the solutions without LACE, and therefore different target glycerol contents. All solutions were prepared using the same Alanine/Benzalkonium Chloride, pH 4.5 stock solution used in the placebos, so that the final composition was consistently: […]
# [3] = Degradation of LACE formulation in storage (HPLC); assay type: physicochemical
# Description: An issue that has rendered formulation of LACE problematic has been the propensity to destabilize by ring-opening of the dithiolane linkage to form oxidized species that compromise the activity of the molecule.
# [4] = Applicant's earlier observations
structure (smiles),measurement,setting,value
"O[C@H](CS)[C@H](O)CS (racemic) [dithiothreitol (DTT), dithiothreitol]",Lens softening,human donor lenses,lens softening can be induced pharmacologically
O=C(O)CCCC[C@@H]1CCSS1 (racemic) [lipoic acid],Lens softening,mouse lenses,lens softening can be induced pharmacologically
"C[N+](C)(C)CCOC(=O)CCCC[C@@H]1CCSS1 [LACE, Lipoic acid choline ester]",Solubility in acetonitrile,[1]; acetonitrile,>4 mg/mL in acetonitrile
same,Solubility in water,[1]; water,>50 mg/mL in water
same,Solution pH,Solution pH of LACE,7-7.5
same,Log P,Log P of LACE,<2
same,Hygroscopicity,Hygroscopicity of LACE,Highly hygroscopic
same,Additional osmolality for every 1% LACE,[2]; [4],44-55 mOsm/kg
same,"Additional osmolality for every 1% LACE, average",[2]; [4],48 mOsm/kg
same,Effect of LACE on osmolality for every 1%,[2]; from Table 7 series,57-60 mOsm/kg
same,Degradation in storage,[3]; refrigerated temperatures,rapid oxidation occurs in storage as early as 1 week
same,Degradation in storage,[3]; room temperature,rapidly degrades into oxidized species
